Legend:
Aurora kinase B = Aurora kinase B (Homo sapiens, UniProt Q96GD4); experiment: AurB [Aur1(AURBPGE1)] Takeda global kinase panel
[1] = target: Mitogen-activated protein kinase 11 (Homo sapiens, UniProt Q15759); experiment: p38beta(MP11LGI1) Takeda global kinase panel
[2] = target: Serine/threonine-protein kinase VRK2 (Homo sapiens, UniProt Q86Y07); experiment: VRK2(VRK2LGRI) Takeda global kinase panel
[3] = target: Serine/threonine-protein kinase PINK1, mitochondrial (Homo sapiens, UniProt Q9BXM7); experiment: PINK1(PIN1PHRE) Takeda global kinase panel
[4] = target: T1, Alpha-1A adrenergic receptor (Homo sapiens) (UniProt P35348); experiment: Inhibition of Adrenergic alpha1A at compound concentration of 10.0 uM in the Eurofins-Panlabs radioligand binding assay (Eurofins_assay_203110); design: ligand concentration 0.25 nM; settings: Rattus norvegicus; Compound concentration 10.0 uM
T1 sequence (whole entry): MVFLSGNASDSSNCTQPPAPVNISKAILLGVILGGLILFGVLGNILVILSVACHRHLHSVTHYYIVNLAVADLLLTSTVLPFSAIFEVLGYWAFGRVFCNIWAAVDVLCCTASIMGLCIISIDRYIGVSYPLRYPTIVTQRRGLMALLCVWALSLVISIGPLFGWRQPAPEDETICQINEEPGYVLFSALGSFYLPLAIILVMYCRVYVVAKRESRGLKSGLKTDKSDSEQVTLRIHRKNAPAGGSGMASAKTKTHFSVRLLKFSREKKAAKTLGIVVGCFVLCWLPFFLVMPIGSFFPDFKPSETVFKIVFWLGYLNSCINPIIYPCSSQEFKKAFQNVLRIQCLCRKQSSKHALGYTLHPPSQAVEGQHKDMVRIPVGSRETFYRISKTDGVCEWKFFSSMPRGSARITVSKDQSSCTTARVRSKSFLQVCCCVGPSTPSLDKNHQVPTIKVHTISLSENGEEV

Mus musculus = species on record: Mus musculus; experiment: Inhibition of Phorbol Ester at 10 µM in the Eurofins-Panlabs radioligand binding assay (Eurofins_assay_264500); design: ligand concentration 3 nM; settings: Compound concentration 10.0 uM
[5] = target: Protein kinase C epsilon type (Homo sapiens, UniProt Q02156); experiment: PKCepsilon(PRKELHY1) Takeda global kinase panel
[6] = target: Cyclin-dependent kinase 12 (Homo sapiens, UniProt Q9NYV4); experiment: CRK7(CD12PHS1) Takeda global kinase panel
[7] = target: Histamine H3 receptor (Homo sapiens) (UniProt Q9Y5N1); settings: Compound concentration 10.0 uM
[8] = target: Mitogen-activated protein kinase kinase kinase kinase 5 (Homo sapiens, UniProt Q9Y4K4); experiment: KHS1(M4K5LGY1) Takeda global kinase panel
[9] = target: Dual specificity tyrosine-phosphorylation-regulated kinase 1B (Homo sapiens, UniProt Q9Y463); experiment: DYRK1B(DY1BLHY1) Takeda global kinase panel
Ephrin type-B receptor 3 = Ephrin type-B receptor 3 (Homo sapiens, UniProt P54753); experiment: EphB3(EPB3LGRJ) Takeda global kinase panel
[10] = target: G protein-coupled receptor kinase 6 (Homo sapiens, UniProt P43250); experiment: GRK6(GRK6LGP1) Takeda global kinase panel
[11] = target: Serine/threonine-protein kinase SIK2 (Homo sapiens, UniProt Q9H0K1); experiment: QIK(SIK2LGY1) Takeda global kinase panel
[12] = target: Serine/threonine-protein kinase N1 (Homo sapiens, UniProt Q16512); experiment: PKN1 [PRK1(PKN1LGY1)] Takeda global kinase panel
SRSF protein kinase 3 = SRSF protein kinase 3 (Homo sapiens, UniProt Q9UPE1); experiment: MSSK1(SRP3MHRL) Takeda global kinase panel
[13] = target: Delta-type opioid receptor (Homo sapiens) (UniProt P41143); settings: Compound concentration 10.0 uM
[14] = target: Serine/threonine-protein kinase VRK1 (Homo sapiens, UniProt Q99986); experiment: VRK1(VRK1LGRI) Takeda global kinase panel
Rattus norvegicus = species on record: Rattus norvegicus; experiment: Inhibition of Thyroid Hormone at 10 µM in the Eurofins-Panlabs radioligand binding assay (Eurofins_assay_285900); format: protein assay; settings: Compound concentration 10.0 uM
[15] = target: Serine/threonine-protein kinase PLK1 (Homo sapiens, UniProt P53350); experiment: PLK1(PLK1LGY1) Takeda global kinase panel
[16] = target: ALK tyrosine kinase receptor (Homo sapiens, UniProt Q9UM73); experiment: ALK(ALK1LGY1) Takeda global kinase panel
[17] = target: Epidermal growth factor receptor (Homo sapiens, UniProt P00533); experiment: Inhibition of Epidermal Growth Factor (EGF) at 10 µM in the Eurofins-Panlabs radioligand binding assay (Eurofins_assay_225510); settings: Compound concentration 10.0 uM
[18] = target: Serine/threonine-protein kinase 32A (Homo sapiens, UniProt Q8WU08); experiment: YANK1(S32APHY1) Takeda global kinase panel
[19] = target: T2, 5-hydroxytryptamine receptor 1A (Homo sapiens) (UniProt P08908); settings: Compound concentration 10.0 uM
T2 sequence (whole entry): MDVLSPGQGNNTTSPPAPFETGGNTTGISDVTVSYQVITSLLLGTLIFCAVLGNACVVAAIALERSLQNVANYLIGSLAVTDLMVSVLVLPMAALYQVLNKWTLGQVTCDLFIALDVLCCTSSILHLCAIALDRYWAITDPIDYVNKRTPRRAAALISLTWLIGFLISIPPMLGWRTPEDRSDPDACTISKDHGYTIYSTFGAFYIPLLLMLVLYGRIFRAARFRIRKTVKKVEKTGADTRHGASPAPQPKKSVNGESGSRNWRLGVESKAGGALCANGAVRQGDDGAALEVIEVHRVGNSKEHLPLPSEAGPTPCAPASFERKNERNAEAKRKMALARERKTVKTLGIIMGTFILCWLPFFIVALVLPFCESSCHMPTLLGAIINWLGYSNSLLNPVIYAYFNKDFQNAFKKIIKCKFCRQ

[20] = target: High affinity nerve growth factor receptor (Homo sapiens, UniProt P04629); experiment: TRKA(NTR1LGN1) Takeda global kinase panel
[21] = target: NUAK family SNF1-like kinase 1 (Homo sapiens, UniProt O60285); experiment: NuaK1(NUA1LGF5) Takeda global kinase panel
[22] = target: Serine/threonine-protein kinase TBK1 (Homo sapiens, UniProt Q9UHD2); experiment: TBK1(TBK1CGF1) Takeda global kinase panel
[23] = target: Fibroblast growth factor receptor 4 (Homo sapiens, UniProt P22455); experiment: FGFR4(FGF4LGF1) Takeda global kinase panel
[24] = target: Casein kinase I isoform gamma-3 (Homo sapiens, UniProt Q9Y6M4); experiment: CK1gamma3(C1G3LGI5) Takeda global kinase panel
[25] = target: D(1B) dopamine receptor (Homo sapiens) (UniProt P21918); experiment: Dopamine D5 Eurofins-Panlabs radioligand binding assay; settings: Compound concentration 10.0 uM
Insulin receptor = Insulin receptor (Homo sapiens, UniProt P06213); experiment: InSR(INSRLGY1) Takeda global kinase panel
[26] = target: Bone morphogenetic protein receptor type-1A (Homo sapiens, UniProt P36894); experiment: BMPR1A(BM1APHRG) Takeda global kinase panel
[27] = target: Mitogen-activated protein kinase 15 (Homo sapiens, UniProt Q8TD08); experiment: ERK7(MP15LGY1) Takeda global kinase panel

Sequence of ALK tyrosine kinase receptor (Q9UM73 whole entry): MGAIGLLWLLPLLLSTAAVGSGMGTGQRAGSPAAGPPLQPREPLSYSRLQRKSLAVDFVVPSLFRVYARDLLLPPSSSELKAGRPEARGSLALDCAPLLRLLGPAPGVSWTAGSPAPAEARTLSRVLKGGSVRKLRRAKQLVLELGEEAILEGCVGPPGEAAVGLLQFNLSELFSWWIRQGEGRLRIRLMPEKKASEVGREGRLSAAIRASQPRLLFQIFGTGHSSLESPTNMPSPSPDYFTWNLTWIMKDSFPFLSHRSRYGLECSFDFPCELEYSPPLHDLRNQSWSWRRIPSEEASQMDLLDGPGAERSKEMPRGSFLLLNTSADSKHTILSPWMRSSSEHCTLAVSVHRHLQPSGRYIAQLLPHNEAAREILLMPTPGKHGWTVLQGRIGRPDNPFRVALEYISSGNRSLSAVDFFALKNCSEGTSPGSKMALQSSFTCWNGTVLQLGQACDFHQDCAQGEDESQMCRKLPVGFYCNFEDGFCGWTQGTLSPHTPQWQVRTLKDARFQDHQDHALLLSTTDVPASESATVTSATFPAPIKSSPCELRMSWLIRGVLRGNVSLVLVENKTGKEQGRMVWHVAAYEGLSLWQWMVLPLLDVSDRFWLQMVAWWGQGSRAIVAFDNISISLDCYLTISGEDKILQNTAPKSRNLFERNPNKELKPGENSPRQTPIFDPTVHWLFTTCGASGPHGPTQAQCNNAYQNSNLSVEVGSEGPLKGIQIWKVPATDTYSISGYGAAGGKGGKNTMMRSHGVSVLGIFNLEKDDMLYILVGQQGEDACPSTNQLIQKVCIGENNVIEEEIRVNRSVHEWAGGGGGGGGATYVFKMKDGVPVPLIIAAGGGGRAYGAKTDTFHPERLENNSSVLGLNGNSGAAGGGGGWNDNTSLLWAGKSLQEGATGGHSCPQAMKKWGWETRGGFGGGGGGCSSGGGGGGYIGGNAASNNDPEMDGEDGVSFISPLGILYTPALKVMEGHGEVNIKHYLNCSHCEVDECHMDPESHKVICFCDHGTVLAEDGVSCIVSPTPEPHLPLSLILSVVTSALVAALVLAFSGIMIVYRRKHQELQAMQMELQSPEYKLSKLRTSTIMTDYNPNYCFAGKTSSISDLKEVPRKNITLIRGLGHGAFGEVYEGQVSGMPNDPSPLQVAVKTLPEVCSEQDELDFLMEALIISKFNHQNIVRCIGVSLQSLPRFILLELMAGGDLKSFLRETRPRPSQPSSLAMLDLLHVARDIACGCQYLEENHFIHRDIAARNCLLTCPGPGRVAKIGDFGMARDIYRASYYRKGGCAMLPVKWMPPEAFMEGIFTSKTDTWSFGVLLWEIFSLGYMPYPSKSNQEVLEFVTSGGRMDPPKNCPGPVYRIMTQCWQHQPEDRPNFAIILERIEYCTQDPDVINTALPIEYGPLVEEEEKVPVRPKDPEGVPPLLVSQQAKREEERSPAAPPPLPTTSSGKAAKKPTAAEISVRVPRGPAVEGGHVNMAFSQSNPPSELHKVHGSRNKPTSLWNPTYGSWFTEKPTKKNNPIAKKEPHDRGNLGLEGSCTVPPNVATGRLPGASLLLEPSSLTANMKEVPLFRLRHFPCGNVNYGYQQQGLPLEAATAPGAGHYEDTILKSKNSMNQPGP
Sequence of NUAK family SNF1-like kinase 1 (O60285 whole entry): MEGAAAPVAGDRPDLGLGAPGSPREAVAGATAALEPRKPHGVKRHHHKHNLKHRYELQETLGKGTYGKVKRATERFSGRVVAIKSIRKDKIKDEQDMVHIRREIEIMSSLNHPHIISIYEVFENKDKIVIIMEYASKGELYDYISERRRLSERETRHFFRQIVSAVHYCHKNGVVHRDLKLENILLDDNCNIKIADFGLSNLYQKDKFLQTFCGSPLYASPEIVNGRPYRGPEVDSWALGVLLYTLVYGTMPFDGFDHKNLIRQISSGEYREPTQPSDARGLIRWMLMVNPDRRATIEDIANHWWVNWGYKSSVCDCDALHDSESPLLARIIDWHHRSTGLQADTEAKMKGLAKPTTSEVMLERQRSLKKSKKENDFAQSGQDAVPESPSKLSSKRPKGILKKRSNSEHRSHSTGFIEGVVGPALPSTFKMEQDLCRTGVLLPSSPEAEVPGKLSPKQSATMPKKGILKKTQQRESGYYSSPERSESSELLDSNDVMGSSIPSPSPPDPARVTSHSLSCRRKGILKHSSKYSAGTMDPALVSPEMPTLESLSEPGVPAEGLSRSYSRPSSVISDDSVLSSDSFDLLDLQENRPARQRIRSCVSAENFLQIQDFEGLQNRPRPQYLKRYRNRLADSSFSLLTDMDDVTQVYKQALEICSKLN
Sequence of High affinity nerve growth factor receptor (P04629 whole entry): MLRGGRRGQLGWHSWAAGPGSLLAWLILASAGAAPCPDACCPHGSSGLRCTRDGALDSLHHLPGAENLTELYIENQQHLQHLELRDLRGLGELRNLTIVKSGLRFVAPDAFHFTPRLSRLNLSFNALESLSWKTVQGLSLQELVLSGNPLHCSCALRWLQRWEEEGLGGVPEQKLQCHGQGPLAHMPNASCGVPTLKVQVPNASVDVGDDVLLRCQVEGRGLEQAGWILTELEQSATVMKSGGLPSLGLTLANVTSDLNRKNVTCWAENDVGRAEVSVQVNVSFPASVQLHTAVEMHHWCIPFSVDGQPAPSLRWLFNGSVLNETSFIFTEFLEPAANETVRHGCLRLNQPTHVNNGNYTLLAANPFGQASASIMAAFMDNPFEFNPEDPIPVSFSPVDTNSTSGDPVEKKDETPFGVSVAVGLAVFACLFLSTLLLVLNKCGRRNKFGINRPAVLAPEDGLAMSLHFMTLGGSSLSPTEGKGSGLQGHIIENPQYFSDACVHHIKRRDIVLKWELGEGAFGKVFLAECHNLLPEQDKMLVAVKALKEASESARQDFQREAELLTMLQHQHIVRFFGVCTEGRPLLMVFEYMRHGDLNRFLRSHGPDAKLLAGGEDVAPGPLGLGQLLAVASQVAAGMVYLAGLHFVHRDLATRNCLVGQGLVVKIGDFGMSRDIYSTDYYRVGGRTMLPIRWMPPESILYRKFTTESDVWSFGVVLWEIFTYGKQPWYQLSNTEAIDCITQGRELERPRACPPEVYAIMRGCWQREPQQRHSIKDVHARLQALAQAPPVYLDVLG
Sequence of Serine/threonine-protein kinase 32A (Q8WU08 whole entry): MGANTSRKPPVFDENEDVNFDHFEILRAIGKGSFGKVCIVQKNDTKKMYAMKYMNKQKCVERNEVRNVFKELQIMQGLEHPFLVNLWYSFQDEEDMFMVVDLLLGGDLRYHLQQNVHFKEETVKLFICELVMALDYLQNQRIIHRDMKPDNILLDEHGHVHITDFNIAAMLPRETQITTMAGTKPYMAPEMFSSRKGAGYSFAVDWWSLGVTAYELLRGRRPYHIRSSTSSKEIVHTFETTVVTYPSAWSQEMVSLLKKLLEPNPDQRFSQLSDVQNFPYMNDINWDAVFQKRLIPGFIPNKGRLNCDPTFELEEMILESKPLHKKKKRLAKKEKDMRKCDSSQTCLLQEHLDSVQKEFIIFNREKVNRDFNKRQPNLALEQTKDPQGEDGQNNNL
Sequence of Delta-type opioid receptor (Homo sapiens) (P41143 whole entry): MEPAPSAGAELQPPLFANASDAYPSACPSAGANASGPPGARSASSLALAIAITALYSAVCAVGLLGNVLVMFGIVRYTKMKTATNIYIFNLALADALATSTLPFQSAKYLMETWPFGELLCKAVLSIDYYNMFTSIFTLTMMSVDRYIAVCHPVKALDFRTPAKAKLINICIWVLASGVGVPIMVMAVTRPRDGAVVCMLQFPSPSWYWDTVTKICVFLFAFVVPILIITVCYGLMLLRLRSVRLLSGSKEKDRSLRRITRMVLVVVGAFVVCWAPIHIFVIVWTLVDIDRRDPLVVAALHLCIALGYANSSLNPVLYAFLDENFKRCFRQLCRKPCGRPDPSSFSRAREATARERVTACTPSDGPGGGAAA
Sequence of Ephrin type-B receptor 3 (P54753 whole entry): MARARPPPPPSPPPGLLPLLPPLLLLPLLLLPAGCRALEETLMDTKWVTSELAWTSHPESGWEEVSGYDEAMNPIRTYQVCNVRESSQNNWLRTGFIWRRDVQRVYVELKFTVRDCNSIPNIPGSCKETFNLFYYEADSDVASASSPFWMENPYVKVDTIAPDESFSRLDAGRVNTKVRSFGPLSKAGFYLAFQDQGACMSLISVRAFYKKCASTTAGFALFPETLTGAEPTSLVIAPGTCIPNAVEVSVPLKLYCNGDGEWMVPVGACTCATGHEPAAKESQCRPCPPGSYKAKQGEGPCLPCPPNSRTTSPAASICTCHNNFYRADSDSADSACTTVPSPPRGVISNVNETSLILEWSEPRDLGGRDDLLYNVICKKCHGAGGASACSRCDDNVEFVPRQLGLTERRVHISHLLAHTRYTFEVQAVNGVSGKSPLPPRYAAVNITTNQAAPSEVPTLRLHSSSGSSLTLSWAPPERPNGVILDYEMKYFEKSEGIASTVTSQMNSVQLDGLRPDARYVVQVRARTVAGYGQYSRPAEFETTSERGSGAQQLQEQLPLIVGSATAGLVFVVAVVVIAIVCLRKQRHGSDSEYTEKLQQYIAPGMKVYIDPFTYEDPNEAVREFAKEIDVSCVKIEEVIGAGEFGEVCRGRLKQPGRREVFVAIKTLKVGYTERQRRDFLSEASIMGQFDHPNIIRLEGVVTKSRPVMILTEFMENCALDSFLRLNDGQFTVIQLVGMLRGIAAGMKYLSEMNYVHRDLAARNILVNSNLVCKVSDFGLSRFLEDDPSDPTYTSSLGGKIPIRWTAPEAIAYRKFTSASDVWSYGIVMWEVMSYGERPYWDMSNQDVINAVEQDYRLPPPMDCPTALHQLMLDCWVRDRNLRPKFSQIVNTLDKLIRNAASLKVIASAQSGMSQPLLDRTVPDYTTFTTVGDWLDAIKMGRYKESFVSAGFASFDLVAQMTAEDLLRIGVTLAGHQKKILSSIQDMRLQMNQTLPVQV

| Compound | IC50 (Aurora kinase B) [µM] | IC50 [1] [µM] | IC50 [2] [µM] | IC50 [3] [µM] | inhibition [4] [%] | inhibition (Mus musculus) [%] | IC50 [5] [µM] | IC50 [6] [µM] | inhibition [7] [%] | IC50 [8] [µM] | IC50 [9] [µM] | IC50 (Ephrin type-B receptor 3) [µM] | IC50 [10] [µM] | IC50 [11] [µM] | IC50 [12] [µM] | IC50 (SRSF protein kinase 3) [µM] | inhibition [13] [%] | IC50 [14] [µM] | inhibition (Rattus norvegicus) [%] | IC50 [15] [µM] | other results |
| --- | --- | --- | --- | --- | --- | --- | --- | --- | --- | --- | --- | --- | --- | --- | --- | --- | --- | --- | --- | --- | --- |
| CN1C(=O)[C@@H](N2CCc3cn(Cc4ccccc4)nc3C2=O)COc2ccccc21 [TP-030-1] | 1 | 1 | 1 | 1 | -1 | -3 | 1 | 1 | 4 | 1 | 1 | 1 | 1 | 1 | 1 | 1 | 3 | 1 | 24 | 1 | IC50 [16]: 1 µM; inhibition [17]: -3%; IC50 [18]: 1 µM; inhibition [19]: -6%; IC50 [20]: 1 µM; IC50 [21]: 1 µM; IC50 [22]: 1 µM; IC50 [23]: 1 µM; IC50 [24]: 1 µM; inhibition [25]: 3%; IC50 (Insulin receptor): 1 µM; IC50 [26]: 1 µM; IC50 [27]: 1 µM |
| CN1C(=O)[C@@H](N2CCc3cn(CC4CCS(=O)(=O)CC4)nc3C2=O)COc2ccccc21 [TP-030n] | 1 | 1 | 1 | 1 | 1 | 7 | 1 | 1 | -5 | 1 | 1 | 1 | 1 | 1 | 1 | 1 | -8 | 1 | 21 | 1 | IC50 [16]: 1 µM; inhibition [17]: 4%; IC50 [18]: 1 µM; inhibition [19]: 3%; IC50 [20]: 1 µM; IC50 [21]: 1 µM; IC50 [22]: 1 µM; IC50 [23]: 1 µM; IC50 [24]: 1 µM; inhibition [25]: 3%; IC50 (Insulin receptor): 1 µM; IC50 [26]: 1 µM; IC50 [27]: 1 µM |

From ChEMBL document CHEMBL4507327 (2021)
